{
  "source": "patent US20050261194A1",
  "about": "“Use of thymulin-like peptides for making pain-relieving medicines” (priority 2001, published 2005)",
  "format_in_all_cases": "in vivo, rat",
  "key": {"NGF": {"tested_on": "NGF", "assay": "NGF in hind paw skin after intraplantar ET (immunological kit)", "description": "(§1) These experiments required tissue sampling. The animals were sacrificed by anesthesia (sodium penthiobarbital, 50 mg/kg) and the skin of the hind paws is sampled either at 1 h (for the determination of the TNFα) or at 4 h (for the determination of IL-1β, IL-6 and NGF) after the endotoxin injection.\n(§2) These tissue samples are weighed and then quick frozen and stored at −70° C. with a view of proceeding with the evaluation of IL-1β, TNFα, IL-6 and NGF.\n(§3) In another series of experiments, the tissues are taken as described above using different groups of rats; the one group being pretreated with TAP 30 minutes before injection of ET and the other group having been injected with TAP only.\n(§4) The tissues are homogenized in a phosphate buffer solution (PBS, pH=7.4), containing 0.4 M of NaCl, 0.05% of Tween-20®, 0.5% bovine serum albumin (BSA), 0.1 mM of phenylmethylsulfonyl fluoride, 0.1 mM of benzethonium chloride, 10 mM of EDTA and 20 KI/mL of aprotinin.\nThe mixture is then centrifuged at 1,200 g for 60 minutes at 4° C. The cytokines and the NFG contained in the supernatant were measured using ELIZA assays.\nThe NGF is measure with the aid of an immunological kit (Promega) by following the recommended instructions of the manufacturer. […]"}, "IL-6": {"tested_on": "IL-6", "assay": "IL-6 in hind paw skin after intraplantar ET (ELISA)", "description": "as §1, §2, §3, §4\nThe mixture is then centrifuged at 1,200 g for 60 minutes at 4° C. The cytokines and the NFG contained in the supernatant were measured using ELIZA assays. […]"}, "rats": {"tested_on": "rats", "assay": "Localized inflammatory hyperalgesia induced by intraplantar injection of endotoxin (ET); PP, PI, HP, TF pain tests", "description": "The experiments were conducted using adult, male Sprague-Dewless rats weighing between 200 and 250 g. The animals were reared under optimum conditions of light and temperature (12 h light and shadow cycle; 22±3° C.). Food and water were dispensed ad libitum. All of the experiments were conducted in compliance with the ethical directives relative to pain experiments done on animals in the conscious state (Zimmermann M., 1983, Ethical guidelines for investigations of experimental pain in conscious animals, Pain, 16:109-110) and they were approved by the Institutional Review Board for animal care.\nThermal and mechanical pain tests were done over a period of 3 consecutive days prior to the injections, in order to establish a baseline.\nThe mechanical nociceptive threshold was determined by the mechanical paw pressure test (PP), while that of the thermal nociceptive threshold was determined using the hot-plate (HP), the paw immersion in hot water (PI) and the tail flick (TF) tests.\nThe PP test is done by applying a constant pressure of 0.20 g/cm^2 alternatingly to the left and right hind paws in an interval of 5 minutes between 2 consecutive pressure applications.\nIn the HP test, the animals are placed individually on a hot plate (52.5° C.±0.3° C.). The pain threshold is measured by the latency period lapsed between the moment, at which the animal is placed on the hot plate and the first sign of pain, indicated by the fact that the animal licks the paw or jumps.\nIn the PI test, the hind paws are wetted alternately in distilled water at 48° C. and the latency time lapsed until the first sign of withdrawal of the paw is noted.\nIn the TF test, the tail of each animal is immersed in distilled water at 50.5° C. The latency time taken by the animal to withdraw it is noted. The results are based on 3 consecutive trials done in 5 minute intervals.\nIn the so-called localized model, the rats received on intraplantar injection of a solution (1.25 μg in 50 μl of […]) of endotoxin (Salmonella typhasa lipopolysaccharides, Sigma) into one of the hind paws, which induces both thermal and mechanical hyperalgesia restricted to the paw having received the injection.\nVarious treatments are then possible • Protocol 1(a): different groups of rats (n=5 in each group) were treated with the analogue peptide (TAP) Glu-Ala-lys-Ser-Gln-Gly-Gly-Ser-Asp (synthesized by Quantum Biotechnologies, Inc., Canada), in the following fashion : • either, they received one intraperitoneal injection (25 μg in 50 μl of physiological saline solution) of this peptide; • or, they were pretreated with different doses of this peptide (1.5 and 25 μg in 50 μl of sodium chloride) by intraperitoneal injection, 30 minutes prior to injection of endotoxins (ET) (1.25 μg in 50 μl of physiological saline solution by intraplantar injection). • Protocol 1(b): other experiments looked at comparing the efficacy of the analog peptides with that of steroids, NSAIDs and peptides known for their antagonism of the hyperalgesia induced by IL-1β and the prostaglandins.\nOne group of rats was pretreated with intraperitoneal injections of Lys-D-Pro-Thr (10 mg/kg) in 100 μl of physiological saline solution, 30 minutes prior to injection of TAP. This tripeptide is know for its antagonism of the hyperalgesia induced by IL-1β only.\nIn the second group, the rats received intraperitoneal injections of the Lys-D-Pro-Val tripeptide (10 mg/kg) in 100 μl of saline solution, 30 minutes prior to the injection of TAP. Lys-D-Pro-Val is an antagonist of the hyperalgesia induced by IL-1β and PEG2.\nA third and a fourth group were treated with dexamethasone and indomethacin.\nDexamethasone phosphate dissolved in a […] sodium solution was injected, at a concentration of 200 μg/kg, just before and 3 hours after the injection of ET. […]"}, "[1]": {"details": "TAP 25 μg in control animals, no ET"}},
  "data": [
    {"substance": "Glu-Ala-lys-Ser-Gln-Gly-Gly-Ser-Asp (SQGGSD; N-terminal Glu-Ala-Lys; printed: Ser-Gln-Gly-Gly-Ser-Asp) [TAP]", "values": [
      {"measurement": "change of NGF concentration, TAP alone", "setting": "NGF; [1]", "result": "did not induce significant change"},
      {"measurement": "NGF concentration", "setting": "NGF; TAP pretreatment before intraplantar ET, ET alone 23.0±1.73, saline 9.11±1.6, p<0.001", "result": "16.73±2.70", "unit": "ng/paw"},
      {"measurement": "change of IL-6 concentration, TAP alone", "setting": "IL-6; [1]", "result": "did not induce significant change"},
      {"measurement": "IL-6 concentration", "setting": "IL-6; TAP pretreatment before intraplantar ET, ET alone 2831±285, saline 250.0±50.0, p<0.001", "result": "1158±197.0", "unit": "pg/paw"},
      {"measurement": "effect compared with indomethacin and dexamethasone", "setting": "rats; ET 1.25 μg intraplantar, indomethacin 4 mg/kg, dexamethasone 200 μg/kg, FIG. 2", "result": "effects similar to those of indomethacin and dexamethasone but at much lower concentrations"},
      {"measurement": "analgesic efficacy compared with Lys-D-Pro-Val and Lys-D-Pro-Thr peptides", "setting": "rats; ET 1.25 μg intraplantar, tripeptides 10 mg/kg i.p., FIG. 2", "result": "much more efficacious analgesic agent"},
      {"measurement": "latency, paw pressure (PP) test", "setting": "rats; TAP 25 μg i.p. 30 min before ET 1.25 μg intraplantar, 9 h after ET, ET alone 0.87±0.09 s, saline 2.06±0.06 s", "result": "2.05 ± 0.07", "unit": "s"},
      {"measurement": "latency, paw immersion (PI) test", "setting": "rats; TAP 25 μg i.p. 30 min before ET 1.25 μg intraplantar, 9 h after ET, ET alone 1.25±0.04 s, saline 1.97±0.05 s", "result": "1.94 ± 0.005", "unit": "s"},
      {"measurement": "latency, tail flick (TF) test", "setting": "rats; TAP 25 μg i.p. 30 min before ET 1.25 μg intraplantar, 9 h after ET, ET alone 2.40±0.06 s, saline 3.19±0.08 s", "result": "3.22 ± 0.09", "unit": "s"},
      {"measurement": "latency, hot-plate (HP) test", "setting": "rats; TAP 25 μg i.p. 30 min before ET 1.25 μg intraplantar, 9 h after ET, ET alone 6.0±0.18, saline 9.24±0.16 s", "result": "9.12 ± 0.7", "unit": "s"},
      {"measurement": "effect on hyperalgesia induced by intraplantar ET", "setting": "rats; TAP 1.5 and 25 μg i.p. pretreatment, FIG. 1", "result": "reduced in dose-dependent fashion the hyperalgesia"},
      {"measurement": "change in latency time in the pain tests, TAP alone", "setting": "rats; TAP alone 25 μg in 50 μl saline i.p., no ET", "result": "did not result in significant change in the latency time"}
    ]}
  ]
}
